# Molecular target: T1, GlyT1 (Homo sapiens, UniProt P48067)
# T1 construct: Human placental choriocarcinoma cells endogenously expressing GlyT1; endogenous in cells; host or cells: JAR cells (human placental choriocarcinoma)
# T1 sequence (P48067 1-706): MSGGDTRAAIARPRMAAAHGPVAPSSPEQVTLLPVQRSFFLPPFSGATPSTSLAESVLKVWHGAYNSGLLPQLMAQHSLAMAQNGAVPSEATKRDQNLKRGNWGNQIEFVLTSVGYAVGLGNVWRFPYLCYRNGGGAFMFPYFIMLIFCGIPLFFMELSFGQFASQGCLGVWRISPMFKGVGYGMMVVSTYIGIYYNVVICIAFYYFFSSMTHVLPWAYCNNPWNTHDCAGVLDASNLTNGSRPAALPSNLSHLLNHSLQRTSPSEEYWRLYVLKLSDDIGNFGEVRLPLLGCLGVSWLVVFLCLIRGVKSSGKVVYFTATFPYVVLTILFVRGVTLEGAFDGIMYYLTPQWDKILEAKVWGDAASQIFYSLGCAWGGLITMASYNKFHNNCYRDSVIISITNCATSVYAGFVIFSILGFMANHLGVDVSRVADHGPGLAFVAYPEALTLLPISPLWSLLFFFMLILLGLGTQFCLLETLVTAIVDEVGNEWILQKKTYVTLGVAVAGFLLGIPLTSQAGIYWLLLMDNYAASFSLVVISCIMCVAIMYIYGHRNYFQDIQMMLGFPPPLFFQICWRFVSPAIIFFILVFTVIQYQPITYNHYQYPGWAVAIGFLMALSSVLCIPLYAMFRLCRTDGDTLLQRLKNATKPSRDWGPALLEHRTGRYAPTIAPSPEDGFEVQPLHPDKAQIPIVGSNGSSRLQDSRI
# Assay: [14C]-glycine uptake inhibition in JAR cells (human placental choriocarcinoma cells endogenously expressing GlyT1)
# Type: cell-based
# Settings: inhibition of specific [14C]-glycine uptake; values given in μM; read-out: Potency
# Protocol: Human placental choriocarcinoma cells endogenously expressing GlyT1 can be cultured using standard conditions. Cells can then be grown at 37° C. in a humidified atmosphere 40-48 hours before the assay. Culture medium can be removed from the culture plate, and cells can be incubated with an amount of TB1A buffer with or without the compounds of the present invention for a sufficient period of time. Then an amount of [^14C]-glycine diluted with TB1A can be added to each well. After incubation the microplates can be sealed and counted. Non-specific uptake of [^14C]-glycine can be determined in the presence of unlabeled glycine. To determine potencies, a range of concentrations of the compounds of the present invention can be added to the cells, followed by the fixed concentration of [^14C]-glycine. The concentration of the present compound that inhibited half of the specific uptake of [^14C]glycine (IC50 value) can be determined from the assay data by non-linear curve fitting.
row,SMILES,IC50 [µM]
1,CCCS(=O)(=O)N1CCC(C(NC(=O)c2ccc(Cl)cc2Cl)c2ccccc2)CC1 (racemic) [Compound 3a],1.5
2,Cn1cnc(S(=O)(=O)N2CCC(C(NC(=O)c3ccccc3C(F)(F)F)c3ccccn3)CC2)c1 (centres unmarked) [Compound 8b],1.6
3,Cn1cc(S(=O)(=O)N2CCC(C(NC(=O)c3ccc(Cl)cc3Cl)c3ccccc3)CC2)cn1 (centres unmarked) [Compound 3c],2.4
4,"CCCS(=O)(=O)N1CCC(C(NC(=O)c2ccc(Cl)cc2Cl)c2ccccc2)CC1 (single isomer, unassigned) [Compound 3a-1]",> 10
5,"Cn1cnc(S(=O)(=O)N2CCC(C(NC(=O)c3ccc(Cl)cc3Cl)c3ccccn3)CC2)c1 (single isomer, unassigned) [Compound 8a-2]",1.6
6,Cn1cnc(S(=O)(=O)N2CCC(C(NC(=O)c3ccccc3Cl)c3ccccc3)CC2)c1 (centres unmarked) [Compound 5a],> 10
7,Cn1cnc(S(=O)(=O)N2CCC(C(NC(=O)c3c(F)cccc3F)c3ccccn3)CC2)c1 (centres unmarked) [Compound 8c],> 10
8,"Cn1cnc(S(=O)(=O)N2CCC(C(NC(=O)c3ccc(Cl)cc3Cl)c3ccccc3)CC2)c1 (single isomer, unassigned) [Compound 3b-1]",> 10

# Same assay, conditions: inhibition of specific [14C]-glycine uptake; values in nM; read-out: Potency
row,SMILES,IC50 [µM]
1,Cn1cnc(S(=O)(=O)N2CCC(C(NC(=O)c3ccc(Cl)cc3)c3ccccn3)CC2)c1 (centres unmarked) [Compound 8d],0.718
2,Cn1cnc(S(=O)(=O)N2CCC(C(NC(=O)c3ccc(Cl)cc3Cl)c3ccccc3)CC2)c1 (racemic) [Compound 3b],0.201
3,Cn1cnc(S(=O)(=O)N2CCC(C(NC(=O)c3ccc(F)cc3F)c3ccccn3)CC2)c1 (centres unmarked) [Compound 8e],0.853
4,"Cn1cnc(S(=O)(=O)N2CCC(C(NC(=O)c3ccc(Cl)cc3Cl)c3ccccc3)CC2)c1 (single isomer, unassigned) [Compound 3b-2]",0.178
5,Cn1cnc(S(=O)(=O)N2CCC(C(NC(=O)c3ccc(Cl)cc3Cl)c3ccccn3)CC2)c1 (racemic) [Compound 8a],0.046
6,"CCCS(=O)(=O)N1CCC(C(NC(=O)c2ccc(Cl)cc2Cl)c2ccccc2)CC1 (single isomer, unassigned) [Compound 3a-2]",0.609
7,Cn1cnc(S(=O)(=O)N2CCC(CNC(=O)c3ccc(Cl)cc3Cl)CC2)c1 [Compound 9a],0.174
8,"Cn1cnc(S(=O)(=O)N2CCC(C(NC(=O)c3ccc(Cl)cc3Cl)c3ccccn3)CC2)c1 (single isomer, unassigned) [Compound 8a-1]",0.09
9,CC(NC(=O)c1ccc(Cl)cc1Cl)C1CCN(S(=O)(=O)c2cn(C)cn2)CC1 (centres unmarked) [Compound 9b],0.53

# Source: patent publication US8436019B2, “Sulfonyl-piperidin-4-yl methylamine amide analogs as GlyT1 inhibitors, methods for making same, and use of same in treating psychiatric disorders” (Vanderbilt University, priority 2009, dated 2013)
